Assay results reported in publication PMC4932606, “Novel stereoselective bufadienolides reveal new insights into the requirements for Na^+, K^+-ATPase inhibition by cardiotonic steroids” (Scientific Reports, 2016).
Where “and” joins values, the source holds several entries; their conditions need not be identical. Equal values may be shown once.

Legend:
[1] = molecular target: T1, Na+, K+-ATPase from pig kidney microsomal membranes (Sus scrofa, UniProt P05024); assay: Na+,K+-ATPase inhibition assay (residual ATP hydrolysis after 2 h preincubation with inhibitor); assay type: biochemical; settings: for KC (equilibrium constant E•I ↔ E•I*): KC = Fhigh/Flow; for Ki: Ki (dissociation constant of initial binding E + I ↔ E•I), derived from KDiss,high and KC; for percentage of high-affinity component (Fhigh): magnitude of high-affinity component of the inhibition curve; for percentage of low-affinity component (Flow): magnitude of low-affinity component of the inhibition curve; for ratio of KDiss,high values α-isomer:β-isomer: stereoselectivity, α:β of the same pair;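 for all read-outs here: enzyme preincubated with inhibitor in 40 mM Tris pH 7.0 containing 3 mM MgCl2 and 3 mM Na-phosphate, remaining activity measured as phosphate released from ATP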
T1 construct: Na^+, K^+-ATPase from pig kidney microsomal membranes was purified by differential centrifugation; from tissue; host or cells: pig kidney microsomal membranes
Description: The residual rates of ATP hydrolysis were plotted vs. different drug concentrations and analysed by fitting hyperbolic functions corresponding to a dominant high-affinity component and (where appropriate) a second smaller low-affinity component, and the resulting kinetic parameters were shown in Table 1.
The solid lines represent hyperbolic fits to the inactivation measured after preincubation of the inhibitors with NKA for 2 hours at 37 °C in the presence of Mg^2+ and Pi.
Na^+, K^+-ATPase from pig kidney microsomal membranes was purified by differential centrifugation[27]. […] The inhibitory effects of bufadienolides on NKA were determined essentially as previously reported[9][10].
Preparation and activity assay of Na+,K+-ATPase
Na+,K+-ATPase from pig kidney microsomal membranes was purified by
differential centrifugation.27 The specific Na,K-ATPase activity was determined
from the difference in the amount of phosphate released in the absence and
4 mM MgCl2 and 3 mM ATP. The specific activity of the enzyme preparation
was approximately 30 µmol ATP hydrolysed/mg protein per min at 37°C.27 The
phosphorylation capacity is about 2.9 nmol/mg protein and is equal to the
high-affinity ouabain binding capacity.10, 27
Details of the kinetic analysis of inhibition
The inhibitory effects of bufadienolides on NKA were determined
essentially as previously reported9, 10. In brief, NKA is preincubated at 37 °C for
2 hours in the presence of 3 mM MgCl2, 3 mM Na-phosphate and 40 mM Tris
(pH 7.0) with increasing concentrations of inhibitor. The residual NKA activity is
subsequently determined by 40-fold dilution into a standard ATPase assay
For each inhibitor concentration the
residual activity was determined in two or three independent experiments and
the error bars in Fig. 4 indicate the standard deviation.
(2) Detailed explanation of the kinetic analysis of inhibition
The interaction between bufalins (I) and Na+,K+-ATPase (E) is interpreted as
relatively slow equilibrium.
The binding of I to E is described by a dissociation constant
The conformational change
is described by an equilibrium constant
After equilibrium is attained by preincubation of the enzyme and inhibitor,
the residual Na+,K+-ATPase activity is measured by a 40-fold dilution into the
assay medium for 2 min. It is assumed that the dilution leads to an immediate
dissociation of E•I into E + I, and it is also assumed that the conformational
change E•I ↔ E•I* is slow on the 2-minutes time scale of the functional assay.
The observed decrease in the Na+,K+-ATPase activity is thus an estimate
of the amount of E•I* present at a given inhibitor concentration in the
preincubation media, and the observed concentration dependence of
inactivation is related to Ki as well as KC.

Na+,K+-ATPase membranes = assay: 13C CP-MAS SSNMR of NKA membranes with labelled inhibitor (binding-site saturation estimated from Table 1); set-up: species or system pig; settings: NKA 13 nmol with 16 nmol inhibitor
Description: We next considered whether the enhanced activity of 5β arises from the additional hydrogen-bonding capacity of the glucose moiety. […] Here we used ^13C cross-polarization magic-angle spinning (CP-MAS) SSNMR to report on the interactions of the glycosidic groups of 5α and 5β with the binding site. […] In Fig. 5 panels C and D are shown ^13C CP-MAS SSNMR spectra of NKA (13 nmol) in the absence of inhibitor (red) and with 5β or 5α (each 16 nmol) (black), respectively. From Table 1 it is estimated that there is 99.5% saturation of the binding site by 5β and about 75% saturation by 5α. For the complex with 5β (Fig. 5C), signals from the inhibitor can clearly be observed around 60–90 ppm; […].
One dimensional proton-decoupled ^13C CP-MAS NMR experiments were performed at −25 °C using a Bruker Avance 400 MHz spectrometer at a magnetic field of 9.3 T equipped with a 4 mm HXY probe and (for 2D measurements on membranes) on a Bruker Avance III 700 MHz instrument with a 3.2 mm HXY probe operating in double-resonance mode. Samples were spun at a MAS rate of 5 kHz in a 4 mm zirconium rotor. […] Two-dimensional DARR spectra of solid inhibitors were recorded at room temperature with a 2-ms contact time at a field of 63 kHz, 83 kHz SPINAL-64 decoupling, […] and a 8-kHz proton field matched to the spinning frequency during a 10-ms mixing time. […]

[2] = KDiss,high, high-affinity component of inhibition curve, preincubation 2 h, 37 °C, Mg2+ and Pi
[3] = KDiss,low, low-affinity component of inhibition curve, reflects ATPase assay medium

SMILES | KC (equilibrium constant E•I ↔ E•I*) [1] | Kd [1, 2] | Kd [1, 3] | Ki [1] | percentage of high-affinity component (Fhigh) [1] | percentage of low-affinity component (Flow) [1] | ratio of KDiss,high values α-isomer:β-isomer [1] | saturation of the binding site (Na+,K+-ATPase membranes) | Kd ([1]; KDiss,low, low-affinity component, value in mM)
CON[C@@H]1CC[C@@]2(C)[C@H](CC[C@@H]3[C@@H]2CC[C@]2(C)[C@@H](c4ccc(=O)oc4)CC[C@]32O)C1 [Compound 4α] | 9.0 | 7.26 ± 0.16 µM | 524 ± 153 µM | 65 µM | 90% | 10% | 145 | – | –
C[C@]12CC[C@](O)(C(F)(F)F)C[C@H]1CC[C@@H]1[C@@H]2CC[C@]2(C)[C@@H](c3ccc(=O)oc3)CC[C@]12O [Compound 6α] | 1.86 | 22.7 ± 1.56 µM | 242 ± 35 µM | 42.2 µM | 65% | 33% | 6.4 | – | –
CON(C1CCC2(C)C(CCC3C2CCC2(C)C(c4ccc(=O)oc4)CCC32O)C1)C1OC(CO)C(O)C(O)C1O (stereo not drawn) [Compound 5β] | 3.17 | 0.085 ± 0.01 µM | 67.6 ± 38 µM | ~0.26 µM and 0.26 µM | 76% | – | – | 99.5% | –
CON([C@@H]1CC[C@@]2(C)[C@H](CC[C@@H]3[C@@H]2CC[C@]2(C)[C@@H](c4ccc(=O)oc4)CC[C@]32O)C1)[C@@H]1O[C@H](CO)[C@@H](O)[C@H](O)[C@H]1O [Compound 5α] | 49 | 39.2 ± 1.5 µM | – | 1920 µM | 98% | – | 461 | about 75% | –
CON[C@H]1CC[C@@]2(C)[C@H](CC[C@@H]3[C@@H]2CC[C@]2(C)[C@@H](c4ccc(=O)oc4)CC[C@]32O)C1 [Compound 4β] | 6.14 | < 0.05 µM | – | ~0.31 µM and 0.31 µM | – | – | – | – | > 1000 µM
C[C@]12CC[C@@](O)(C(F)(F)F)C[C@H]1CC[C@@H]1[C@@H]2CC[C@]2(C)[C@@H](c3ccc(=O)oc3)CC[C@]12O [Compound 6β] | 1.78 | 3.56 ± 0.6 µM | 93.5 ± 67 µM | 6.3 µM | 64% | 32% | – | – | –
